The test system of assay [1] is mice subjected to chronic mild stress (CMS). The experiment in a line: Alcohol consumption in mice subjected to chronic mild stress (CMS). It is filed as in vivo, mouse. As to conditions: for alcohol consumption: mice subjected to chronic mild stress (CMS); for CB2R agonist or antagonist effect on alcohol consumption: normal mice not subjected to CMS. The source says:
The involvement of brain neuronal CB2Rs in drug abuse and depression is studied by using the conditional ko mice of the invention. Mice preferring alcohol have reduced Cnr2 gene expression in the ventral midbrain whereas the Cnr2 gene expression is unaltered in the ventral midbrain region of mice with little or no preference for alcohol. […] This CB2R agonist or antagonist effect is absent in normal mice that were not subjected to CMS.

A further assay has as its target T1, CB2R (Mus musculus, UniProt P47936).
T1 construct: from tissue; host or cells: living mouse; brain (microglia and neurons) after stroke
Briefly: Early and pretreatment with CB2R agonist in stroke. It is filed as in vivo. From the text:
Optimal treatment time with CB2R agonist for anti-inflammation and neurodegeneration is studied after stroke. […] Using Cx3crl-Cnr2 and Nestin-Cnr2 pre-clinical mouse models of stroke timed experiments by administering the commercially available CB2R agonist […] at specific time points post infarct at selected doses provides data to evaluate compounds for this use. The CB2R molecular pathways and partners in stroke studied in microglia and neural progenitor cells (NPC) on different post stroke days are evaluated when various compounds are tested. Such microglia and neuron specific CB2Rs-KO stroke behavioral models allow precise mapping of CB2R selective agonist (e.g. JWH133) for potential protective roles in stroke.

A further assay concerns Cnr2 gene transcripts. Briefly: Expression of Cnr2 gene transcripts in rodents treated with abused substances. Format: in vivo. The conditions noted are these: treated animals in comparison to controls.
Another assay relates to BTBR mice. The experiment in a line: Behavioral effects of THC in a mouse model of depression (time and number of immobility). As to conditions: BTBR mice (autism-like phenotype) compared to control mice; FIG. 1. It is filed as in vivo. The source says:
FIG. 1. Behavioral effects THC in a mouse model of depression: The time and number of immobility in the test is the index measured.

T1 sequence (P47936 whole entry): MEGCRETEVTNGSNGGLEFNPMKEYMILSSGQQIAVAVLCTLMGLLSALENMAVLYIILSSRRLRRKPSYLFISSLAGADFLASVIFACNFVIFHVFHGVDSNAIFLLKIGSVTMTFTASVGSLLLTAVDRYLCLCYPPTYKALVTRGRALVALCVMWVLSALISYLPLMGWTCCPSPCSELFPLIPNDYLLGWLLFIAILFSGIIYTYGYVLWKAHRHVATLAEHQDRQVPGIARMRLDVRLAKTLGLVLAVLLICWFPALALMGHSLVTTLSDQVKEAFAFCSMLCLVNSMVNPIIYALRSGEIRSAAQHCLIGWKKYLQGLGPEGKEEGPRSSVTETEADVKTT

In the case of `COc1ccc(C(=O)c2c(C)n(CCN3CCOCC3)c3cc(I)ccc23)cc1` [AM630], in assay [1], the alcohol consumption entry is on record as “reduces the stress-induced increase in alcohol consumption” and the “CB2R agonist or antagonist effect on alcohol consumption” value was “absent”.

For the molecule `CN1CCCCC1Cn1cc(C(=O)c2cc([N+](=O)[O-])ccc2I)c2ccccc21` (stereo not shown) [AM1241], at CB2R, the brain infarct volumes entry was “significantly reduce” and the neurological deficits result is “significantly reduce”.

Turning to `CC(=O)Oc1ccc2c3c1O[C@H]1[C@@H](OC(C)=O)C=C[C@H]4[C@@H](C2)N(C)CC[C@@]341` [heroin], in the assay on Cnr2 gene transcripts, the “Cnr2 gene transcripts in the brain” value is reported as “increased Cnr2 gene transcripts”.

For the molecule `CCCCCc1cc(O)c2c(c1)OC(C)(C)[C@@H]1CCC(C)=C[C@@H]21` [THC, tetrahydrocannabinol], the “Behavioral effects of THC: time and number of immobility” value with BTBR mice is listed as “BTBR mice are insensitive to the effects of THC”.

In the case of `CCCC(C)(C)c1ccc2c(c1)OC(C)(C)[C@@H]1CC=C(C)C[C@@H]21` [JWH133], on CB2R, the brain infarct volumes result is on record as “significantly reduce” and the neurological deficits entry is listed as “significantly reduce”.

For `CCCn1c(C)c(C(=O)c2cccc3ccccc23)c2ccccc21` [JWH 015], in assay [1], the alcohol consumption result is given as “enhances alcohol consumption” and the “CB2R agonist or antagonist effect on alcohol consumption” value was “absent”.
